Laboratory results published in ChEMBL document CHEMBL3352784, “Investigation of Cardiovascular Effects of Tetrahydro-β-carboline sstr3 antagonists” (ACS Med Chem Lett, 2014).

Key:
[1] = target: T1, Somatostatin receptor type 3 (Mus musculus, UniProt P30935); assay type: cell-based, CHO
[2] = target: T1, Somatostatin receptor type 3; experiment: Antagonist activity at mouse SSTR3 expressed in CHO cells assessed as cAMP level by fluorescence analysis; assay type: functional, cell-based
[3] = target: T2, Somatostatin receptor type 3 (Homo sapiens, UniProt P32745)
Description: Antagonist activity at human SSTR3 expressed in CHO cells assessed as cAMP level by fluorescence analysis

[4] = target: T2, Somatostatin receptor type 3; experiment: biochemical
Description: Displacement of [125I]SS-14 from human SSTR3 expressed in CHO cells by TopCount analyzer

[5] = target: Somatostatin receptor type 3 (Mus musculus) (UniProt P30935); experiment: Antagonist activity at mouse SSTR3 expressed in CHO cells assessed as cAMP level by fluorescence analysis relative to control; assay type: functional, cell-based; design: concentration or dose not given beside the values; settings: concentration not given here
[6] = target: Voltage-gated inwardly rectifying potassium channel KCNH2 (Homo sapiens, UniProt Q12809)
Description: Inhibition of human ERG by MK-499 displacement binding analysis

[7] = tested on: Canis familiaris; experiment: Toxicity in anesthetized vagus-intact cardiovascular dog model assessed as QTc interval prolongation at 909 uM plasma concentration; assay type: organism-based, Canis lupus familiaris
[8] = Clearance in mouse; assay type: ADME, organism-based; settings: in vivo
[9] = Half life in mouse; assay type: ADME, organism-based; settings: in vivo
[10] = Oral bioavailability in mouse; assay type: ADME, organism-based; settings: in vivo
[11] = target: Somatostatin receptor type 1 (Homo sapiens, UniProt P30872); assay type: cell-based, CHO
[12] = target: Somatostatin receptor type 2 (Homo sapiens, UniProt P30874); assay type: cell-based, CHO
[13] = target: Somatostatin receptor type 4 (Homo sapiens, UniProt P31391); assay type: cell-based, CHO
[14] = target: Somatostatin receptor type 5 (Homo sapiens, UniProt P35346); assay type: cell-based, CHO
[15] = tested on: Mus musculus; experiment: Antidiabetic activity in C57BL/6 mouse assessed as reduction in glucose excursion at 3 mg/kg, po by oGTT assay relative to MK-4256; assay type: functional
[16] = tested on: Mus musculus; experiment: Antidiabetic activity in C57BL/6 mouse assessed as reduction in glucose excursion at 10 mg/kg, po by oGTT assay relative to MK-4256; assay type: functional
[17] = tested on: Mus musculus; experiment: Antidiabetic activity in C57BL/6 mouse assessed as reduction in glucose excursion at 3 mg/kg, po by oGTT assay relative to control; assay type: functional; settings: C57BL/6, read-out: INH
[18] = Plasma concentration in C57BL/6 mouse at 3 mg/kg, po after 2.5 hrs; assay type: ADME, organism-based; design: dose 3 mg/kg, route oral
[19] = Plasma concentration in C57BL/6 mouse at 10 mg/kg, po after 2.5 hrs; assay type: ADME, organism-based; design: dose 10 mg/kg, route oral
[20] = tested on: Mus musculus; experiment: Antidiabetic activity in C57BL/6 mouse assessed as reduction in glucose excursion at 1 mg/kg, ip by oGTT assay relative to MK-4256; assay type: functional; settings: C57BL/6, ip, route intraperitoneal
[21] = Plasma concentration in C57BL/6 mouse at 1 mg/kg, ip after 2.5 hrs; assay type: ADME, organism-based; design: dose 1 mg/kg, route intraperitoneal
[22] = in vivo; settings: dog, iv, 10 mg/kg
[23] = in vivo; settings: dog, iv, 20 mg/kg
[24] = in vivo; settings: dog, iv, 50 mg/kg

T1 sequence (P30935 whole entry): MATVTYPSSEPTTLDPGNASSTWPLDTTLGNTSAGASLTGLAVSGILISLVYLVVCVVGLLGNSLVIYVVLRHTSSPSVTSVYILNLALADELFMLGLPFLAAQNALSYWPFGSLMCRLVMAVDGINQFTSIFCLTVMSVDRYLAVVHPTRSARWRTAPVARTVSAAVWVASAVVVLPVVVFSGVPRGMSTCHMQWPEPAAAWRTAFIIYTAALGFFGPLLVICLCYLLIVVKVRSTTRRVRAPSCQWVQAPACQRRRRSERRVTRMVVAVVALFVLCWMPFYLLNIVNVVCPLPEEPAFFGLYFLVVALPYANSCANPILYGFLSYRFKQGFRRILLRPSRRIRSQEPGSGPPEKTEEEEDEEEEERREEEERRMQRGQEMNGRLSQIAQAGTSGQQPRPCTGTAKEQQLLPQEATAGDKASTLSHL
Chain of Somatostatin receptor type 3 (Mus musculus) (P30935 whole entry): as above
T2 sequence (P32745 whole entry): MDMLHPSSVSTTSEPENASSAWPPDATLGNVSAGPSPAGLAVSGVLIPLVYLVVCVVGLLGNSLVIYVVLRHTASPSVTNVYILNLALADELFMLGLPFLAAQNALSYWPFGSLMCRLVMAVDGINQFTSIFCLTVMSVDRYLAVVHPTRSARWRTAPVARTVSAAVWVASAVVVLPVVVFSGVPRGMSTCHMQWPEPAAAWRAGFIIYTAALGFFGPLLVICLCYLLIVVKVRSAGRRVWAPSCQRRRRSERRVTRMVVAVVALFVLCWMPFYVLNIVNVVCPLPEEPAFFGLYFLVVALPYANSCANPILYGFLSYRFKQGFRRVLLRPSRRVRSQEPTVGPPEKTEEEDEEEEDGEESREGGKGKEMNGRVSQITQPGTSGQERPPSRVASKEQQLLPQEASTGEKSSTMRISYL
Chain of Voltage-gated inwardly rectifying potassium channel KCNH2 (Q12809 whole entry): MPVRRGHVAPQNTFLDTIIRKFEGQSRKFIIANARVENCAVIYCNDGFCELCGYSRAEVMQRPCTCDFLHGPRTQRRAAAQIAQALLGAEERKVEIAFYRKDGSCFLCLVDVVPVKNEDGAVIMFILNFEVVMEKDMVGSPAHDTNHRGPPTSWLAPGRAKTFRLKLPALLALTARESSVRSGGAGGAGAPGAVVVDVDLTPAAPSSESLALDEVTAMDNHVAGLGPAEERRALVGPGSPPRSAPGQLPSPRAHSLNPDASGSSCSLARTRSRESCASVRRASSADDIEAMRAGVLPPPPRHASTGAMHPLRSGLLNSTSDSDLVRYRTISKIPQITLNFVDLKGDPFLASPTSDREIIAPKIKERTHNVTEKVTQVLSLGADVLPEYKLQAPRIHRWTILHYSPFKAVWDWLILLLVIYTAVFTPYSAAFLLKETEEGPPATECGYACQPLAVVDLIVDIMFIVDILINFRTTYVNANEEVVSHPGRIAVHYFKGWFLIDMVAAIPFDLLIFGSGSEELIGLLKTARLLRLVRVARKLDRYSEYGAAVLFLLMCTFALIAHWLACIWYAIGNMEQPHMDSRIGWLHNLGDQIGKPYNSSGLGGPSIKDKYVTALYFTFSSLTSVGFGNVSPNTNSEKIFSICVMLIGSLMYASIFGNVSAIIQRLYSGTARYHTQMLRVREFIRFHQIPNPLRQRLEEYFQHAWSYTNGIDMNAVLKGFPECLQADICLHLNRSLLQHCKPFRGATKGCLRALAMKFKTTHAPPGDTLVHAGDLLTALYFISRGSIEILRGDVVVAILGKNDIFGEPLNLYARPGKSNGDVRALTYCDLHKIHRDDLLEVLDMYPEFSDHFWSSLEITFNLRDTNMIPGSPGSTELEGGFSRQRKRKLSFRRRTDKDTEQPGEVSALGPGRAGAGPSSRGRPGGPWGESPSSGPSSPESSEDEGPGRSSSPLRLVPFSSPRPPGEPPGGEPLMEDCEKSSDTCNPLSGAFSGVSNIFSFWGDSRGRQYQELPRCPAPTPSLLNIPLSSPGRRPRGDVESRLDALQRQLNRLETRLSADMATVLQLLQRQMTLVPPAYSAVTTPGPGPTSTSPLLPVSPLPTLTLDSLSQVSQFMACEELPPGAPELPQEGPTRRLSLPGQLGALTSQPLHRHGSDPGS
Chain of Somatostatin receptor type 2 (P30874 whole entry): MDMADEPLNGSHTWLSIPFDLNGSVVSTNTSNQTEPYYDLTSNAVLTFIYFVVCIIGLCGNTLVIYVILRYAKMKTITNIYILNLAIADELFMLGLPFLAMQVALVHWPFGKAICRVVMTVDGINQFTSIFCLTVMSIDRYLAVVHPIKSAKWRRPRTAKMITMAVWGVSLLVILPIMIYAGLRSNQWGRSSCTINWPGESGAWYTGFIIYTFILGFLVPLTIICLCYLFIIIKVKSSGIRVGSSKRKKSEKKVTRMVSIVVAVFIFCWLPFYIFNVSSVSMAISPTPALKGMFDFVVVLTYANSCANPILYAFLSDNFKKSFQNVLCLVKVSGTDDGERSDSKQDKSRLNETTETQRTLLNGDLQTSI
Chain of Somatostatin receptor type 5 (P35346 whole entry): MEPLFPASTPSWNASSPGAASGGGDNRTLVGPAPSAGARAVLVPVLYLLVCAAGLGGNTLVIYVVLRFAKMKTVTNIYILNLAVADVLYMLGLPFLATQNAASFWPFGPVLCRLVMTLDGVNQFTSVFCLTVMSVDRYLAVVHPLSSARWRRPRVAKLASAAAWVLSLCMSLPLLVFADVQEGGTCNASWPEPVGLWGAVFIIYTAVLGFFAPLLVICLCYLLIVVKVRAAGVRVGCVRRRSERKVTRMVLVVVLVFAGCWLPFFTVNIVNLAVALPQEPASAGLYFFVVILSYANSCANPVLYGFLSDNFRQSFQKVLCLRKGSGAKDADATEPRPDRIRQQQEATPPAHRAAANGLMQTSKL
Chain of Somatostatin receptor type 1 (P30872 whole entry): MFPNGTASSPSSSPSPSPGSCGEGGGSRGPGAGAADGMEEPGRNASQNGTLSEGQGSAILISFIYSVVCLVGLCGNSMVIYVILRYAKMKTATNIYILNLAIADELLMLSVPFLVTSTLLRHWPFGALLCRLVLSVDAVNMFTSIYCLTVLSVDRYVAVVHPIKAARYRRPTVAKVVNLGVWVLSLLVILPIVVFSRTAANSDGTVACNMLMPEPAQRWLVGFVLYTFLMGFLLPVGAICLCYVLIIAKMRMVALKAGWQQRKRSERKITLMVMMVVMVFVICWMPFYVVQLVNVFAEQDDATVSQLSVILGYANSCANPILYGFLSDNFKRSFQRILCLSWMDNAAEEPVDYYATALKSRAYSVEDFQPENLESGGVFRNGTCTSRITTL
Chain of Somatostatin receptor type 4 (P31391 whole entry): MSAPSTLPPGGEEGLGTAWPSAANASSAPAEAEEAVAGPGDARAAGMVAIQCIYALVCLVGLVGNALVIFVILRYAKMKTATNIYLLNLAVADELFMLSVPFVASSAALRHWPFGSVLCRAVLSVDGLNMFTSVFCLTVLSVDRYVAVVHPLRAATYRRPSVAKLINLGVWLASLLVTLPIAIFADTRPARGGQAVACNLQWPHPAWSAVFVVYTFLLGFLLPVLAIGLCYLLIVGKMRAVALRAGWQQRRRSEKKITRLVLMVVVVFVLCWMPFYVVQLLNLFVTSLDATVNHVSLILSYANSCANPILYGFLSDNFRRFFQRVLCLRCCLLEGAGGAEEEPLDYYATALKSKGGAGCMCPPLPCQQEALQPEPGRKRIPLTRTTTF

Row | SMILES | IC50 [2] | IC50 [3] | IC50 [4] | inhibition [5] | other results
1 | Cn1cc(C2(c3cccc(C(=O)O)n3)N[C@@H](c3nc(-c4ccc(F)cc4)c[nH]3)Cc3c2[nH]c2ccccc32)cn1 (single isomer, unassigned; 2A) [listing 1 of 2 here] | 34 nM | 67 nM | 4.41 nM |  | IC50 [1]: 3.93 nM
2 | CCOC(=O)c1ccnc(C2(c3cnn(C)c3)N[C@@H](c3nc(-c4ccc(F)cc4)c[nH]3)Cc3c2[nH]c2ccccc32)c1 (single isomer, unassigned) | 0.36 nM | 0.78 nM | 0.64 nM | 91% | IC50 [1]: 0.41 nM
3 | Cn1cc([C@]2(c3cncc(C(=O)O)c3)N[C@@H](c3nc(-c4ccc(F)cc4)c[nH]3)Cc3c2[nH]c2ccccc32)cn1 | 2.9 nM | 6.12 nM | 10.8 nM | 80% | 
4 | CCOC(=O)c1cccc(C2(c3cnn(C)c3)N[C@@H](c3nc(-c4ccc(F)cc4)c[nH]3)Cc3c2[nH]c2ccccc32)n1 (single isomer, unassigned; 6B) [listing 1 of 2 here] | 3.48 nM | 5.36 nM | 1.52 nM |  | IC50 [1]: 0.7 nM
5 | CCOC(=O)c1cncc([C@@]2(c3cnn(C)c3)N[C@@H](c3nc(-c4ccc(F)cc4)c[nH]3)Cc3c2[nH]c2ccccc32)c1 | 8.37 nM | 24 nM | 3.36 nM | 107% | IC50 [6]: 2520 nM
6 | Cn1cc(C2(c3ccc(C(=O)O)cn3)N[C@@H](c3nc(-c4ccc(F)cc4)c[nH]3)Cc3c2[nH]c2ccccc32)cn1 (single isomer, unassigned; 5B) [listing 1 of 2 here] | 1860 nM |  |  |  | 
7 | CCOC(=O)c1cccc(C2(c3cnn(C)c3)N[C@@H](c3nc(-c4ccc(F)cc4)c[nH]3)Cc3c2[nH]c2ccccc32)n1 (single isomer, unassigned; 6B) [listing 2 of 2 here] |  |  |  | 87% | 
8 | Cn1cc(C2(c3cccc(C(=O)O)n3)N[C@@H](c3nc(-c4ccc(F)cc4)c[nH]3)Cc3c2[nH]c2ccccc32)cn1 (single isomer, unassigned; 2B) [listing 1 of 2 here] |  |  |  | 69% | 
9 | Cn1cc(C2(c3cc(C(=O)O)ccn3)N[C@@H](c3nc(-c4ccc(F)cc4)c[nH]3)Cc3c2[nH]c2ccccc32)cn1 (single isomer, unassigned; 3A) [listing 1 of 2 here] |  |  |  | 81% | 
10 | Cn1cc(C2(c3ccc(C(=O)O)cn3)N[C@@H](c3nc(-c4ccc(F)cc4)c[nH]3)Cc3c2[nH]c2ccccc32)cn1 (single isomer, unassigned; 5B) [listing 2 of 2 here] |  |  |  | 51% | 
11 | CCOC(=O)c1cccc(C2(c3cnn(C)c3)N[C@@H](c3nc(-c4ccc(F)cc4)c[nH]3)Cc3c2[nH]c2ccccc32)n1 (single isomer, unassigned; 6A) [listing 1 of 2 here] | 0.58 nM | 1.97 nM | 0.83 nM |  | IC50 [1]: 0.41 nM
12 | Cn1cc(C2(c3cc(C(=O)O)ccn3)N[C@@H](c3nc(-c4ccc(F)cc4)c[nH]3)Cc3c2[nH]c2ccccc32)cn1 (single isomer, unassigned; 3A) [listing 2 of 2 here] | 0.73 nM | 1.71 nM | 2.13 nM |  | Activity [7]: Non-toxic; IC50 [1]: 1.72 nM; clearance [8]: 15.6 mL/min/kg; half-life [9]: 2.62 h; bioavailability [10]: 1.5%; IC50 [11]: > 10000 nM; IC50 [12]: > 10000 nM; IC50 [13]: > 10000 nM; IC50 [14]: > 10000 nM; inhibition in vivo at 3 mg/kg [15]: 24%; inhibition in vivo at 10 mg/kg [16]: 35%; inhibition in vivo at 3 mg/kg [17]: 24%; concentration at 2.5 h [18]: 0.002 µM; concentration at 2.5 h [19]: 0.003 µM; inhibition in vivo at 1 mg/kg [20]: 64%; concentration at 2.5 h [21]: 0.074 µM; Cmax at 0.5 h [22]: 38 µM; Cmax at 0.5 h [23]: 199 µM; Cmax at 0.5 h [24]: 909 µM
13 | CCOC(=O)c1ccc(C2(c3cnn(C)c3)N[C@@H](c3nc(-c4ccc(F)cc4)c[nH]3)Cc3c2[nH]c2ccccc32)nc1 (single isomer, unassigned; 9B) [listing 1 of 2 here] | 14.2 nM | 31.6 nM | 2.91 nM |  | 
14 | Cn1cc(C2(c3cccc(C(=O)O)n3)N[C@@H](c3nc(-c4ccc(F)cc4)c[nH]3)Cc3c2[nH]c2ccccc32)cn1 (single isomer, unassigned; 2A) [listing 2 of 2 here] |  |  |  | 101% | 
15 | CCOC(=O)c1ccnc([C@@]2(c3cnn(C)c3)N[C@@H](c3nc(-c4ccc(F)cc4)c[nH]3)Cc3c2[nH]c2ccccc32)c1 | 14.7 nM | 47.1 nM | 4.87 nM | 85% | 
16 | CCOC(=O)c1cccc(C2(c3cnn(C)c3)N[C@@H](c3nc(-c4ccc(F)cc4)c[nH]3)Cc3c2[nH]c2ccccc32)n1 (single isomer, unassigned; 6A) [listing 2 of 2 here] |  |  |  | 80% | 
17 | Cn1cc(C2(c3cc(C(=O)O)ccn3)N[C@@H](c3nc(-c4ccc(F)cc4)c[nH]3)Cc3c2[nH]c2ccccc32)cn1 (single isomer, unassigned; 3B) [listing 1 of 2 here] | 17.1 nM | 52.3 nM | 72.7 nM |  | 
18 | Cn1cc(C2(c3cc(C(=O)O)ccn3)N[C@@H](c3nc(-c4ccc(F)cc4)c[nH]3)Cc3c2[nH]c2ccccc32)cn1 (single isomer, unassigned; 3B) [listing 2 of 2 here] |  |  |  | 70% | 
19 | Cn1cc(C2(c3cccc(C(=O)O)n3)N[C@@H](c3nc(-c4ccc(F)cc4)c[nH]3)Cc3c2[nH]c2ccccc32)cn1 (single isomer, unassigned; 2B) [listing 2 of 2 here] | 111 nM | 105 nM | 74.7 nM |  | 
20 | Cn1cc(C2(c3ccc(C(=O)O)cn3)N[C@@H](c3nc(-c4ccc(F)cc4)c[nH]3)Cc3c2[nH]c2ccccc32)cn1 (single isomer, unassigned; 5A) [listing 1 of 2 here] |  |  |  | 87% | 
21 | CCOC(=O)c1ccc(C2(c3cnn(C)c3)N[C@@H](c3nc(-c4ccc(F)cc4)c[nH]3)Cc3c2[nH]c2ccccc32)nc1 (single isomer, unassigned; 9B) [listing 2 of 2 here] |  |  |  | 66% | 
22 | Cn1cc([C@@]2(c3cncc(C(=O)O)c3)N[C@@H](c3nc(-c4ccc(F)cc4)c[nH]3)Cc3c2[nH]c2ccccc32)cn1 | 0.16 nM | 0.52 nM | 1.22 nM | 67% | 
23 | CCOC(=O)c1ccc(C2(c3cnn(C)c3)N[C@@H](c3nc(-c4ccc(F)cc4)c[nH]3)Cc3c2[nH]c2ccccc32)nc1 (single isomer, unassigned; 9A) [listing 1 of 2 here] | 1.53 nM | 5.25 nM | 1.72 nM |  | 
24 | Cn1cc(C2(c3ccc(C(=O)O)cn3)N[C@@H](c3nc(-c4ccc(F)cc4)c[nH]3)Cc3c2[nH]c2ccccc32)cn1 (single isomer, unassigned; 5A) [listing 2 of 2 here] | 57.1 nM |  |  |  | 
25 | CCOC(=O)c1ccc(C2(c3cnn(C)c3)N[C@@H](c3nc(-c4ccc(F)cc4)c[nH]3)Cc3c2[nH]c2ccccc32)nc1 (single isomer, unassigned; 9A) [listing 2 of 2 here] |  |  |  | 96% | 
26 | CCOC(=O)c1cncc([C@]2(c3cnn(C)c3)N[C@@H](c3nc(-c4ccc(F)cc4)c[nH]3)Cc3c2[nH]c2ccccc32)c1 | 0.35 nM | 0.15 nM | 0.78 nM | 99% | IC50 [6]: 2260 nM
